IC50 data for 18 molecules are collected here from patent publication US8557823B2, “Family of PFKFB3 inhibitors with anti-neoplastic activities” (Advanced Cancer Therapeutics, LLC, priority 2007, dated 2013).

Read-outs that look alike come from different tables or passages of the source. Bounds are passed on as bounds.

Type in all cases: cell-based
One test relates to Jurkat. Put plainly: Cancer cell proliferation, Alamar Blue assay 72 hours, Jurkat. How it is done:
(§1) The ability of the compounds described herein to kill or inhibit the proliferation of cancer cells was measured using either the MTT assay, the Alamar Blue assay, or the Cell Titer Glow® assay using 48 or 72 hours exposure. […] The procedures are briefly described below. Cells of the desired tumor cell line were plated at 2×10^5 cells/ml in 96 well plates. Twice the indicated concentrations of the compounds of the invention were added to cells the following day in an equal volume of media. 72 hours later, cells were lysed and subjected to ATP determination using the CellTiter Glo-Luminescent Cell Viability Assay kit (Promega, Madison, Wis.). Experiments were done in triplicate. When using the MTT assay or the Alamar blue assay, the experimental conditions are essentially similar; at the end of the incubation period, 20 microl of the MTT solution is added per well and the samples are incubated for an additional four hours, rinsed and the absorbance at 570 nm measured. Results for the inhibition of cells proliferation are reported as IC50 as commonly done (the concentration leading to a 50% inhibition of proliferation of the cell population) and are listed in the Tables below. Table 4 lists the IC50 for the compounds of the invention in several cell lines including Jurkat, Calu-6, NCI-H82, U937, or NCI-H1437 cancer cell lines. Table 5 lists the IC50 of PFK-070 in a panel of 10 cell lines.
For orientation: Alamar Blue is a resazurin reagent that responds to reducing activity.

A further test concerns U937. Put plainly: Cancer cell proliferation, Alamar Blue assay 72 hours, U937. Conditions: Homo sapiens, U-937. As to the method:
as §1

The subject of the next test is Calu-6. Description: Cancer cell proliferation, Alamar Blue assay 72 hours, Calu-6. Conditions: Homo sapiens. How it is done:
as §1

Another test concerns NCI-H82. Description: Cancer cell proliferation, Alamar Blue assay 72 hours, NCI-H82. Conditions: Homo sapiens. As to the method: as §1

Turning to `O=C(/C=C/c1ccnc2ccccc12)c1ccncc1` [ACT-PFK-013, 1-Pyridin-4-yl-3-quinolin-4-yl-propenone], the IC50 (commonly the concentration that gives 50% inhibition) in the test on Jurkat (Homo sapiens, Jurkat, 72 h) was determined as 1000 nM.
On to `O=C(/C=C/c1cnc2ccccc2c1)c1ccncc1` [ACT-PFK-014, 1-Pyridin-4-yl-3-quinolin-3-yl-propenone], for which the IC50 with Jurkat was determined as 4000 nM.
In the test on Jurkat (Homo sapiens, Jurkat, 72 h), `O=C(/C=C/c1ccc2ccccc2n1)c1cccnc1` [ACT-PFK-035, 1-Pyridin-3-yl-3-quinolin-2-yl-propenone] came in with a half-maximal inhibitory concentration (IC50) of 2500 nM.
With `O=C(/C=C/c1ccnc2ccccc12)c1cccnc1` [ACT-PFK-036, 1-Pyridin-3-yl-3-quinolin-4-yl-propenone], the IC50 with Jurkat (Homo sapiens, Jurkat, 72 h) was determined as 2500 nM.
In the test on Jurkat (Homo sapiens, Jurkat, 72 h), `O=C(/C=C/c1ccc2cccnc2c1)c1cccnc1` [ACT-PFK-037, 1-Pyridin-3-yl-3-quinolin-7-yl-propenone] returned a concentration for half-maximal inhibition (IC50) of 2500 nM.
Still for that read-out and setting: under `O=C(/C=C/c1cccc2ncccc12)c1ccncc1` [ACT-PFK-038, 1-Pyridin-4-yl-3-quinolin-5-yl-propenone] stands 1000 nM; under `O=C(/C=C/c1cccc2ncccc12)c1cccnc1` [ACT-PFK-039, 1-Pyridin-3-yl-3-quinolin-5-yl-propenone], 1000 nM; under `O=C(/C=C/c1cccc2cccnc12)c1ccncc1` [ACT-PFK-047, 1-Pyridin-4-yl-3-quinolin-8-yl-propenone], 14000 nM.
In turn, `O=C(/C=C/c1cnc2ccccc2c1)c1cccnc1` [ACT-PFK-048, 1-Pyridin-3-yl-3-quinolin-3-yl-propenone] showed an IC50 in the test on Jurkat (Homo sapiens, Jurkat, 72 h) of 17000 nM.
Regarding `O=C(/C=C/c1cnc2ccccc2c1)c1ccncc1` [ACT-PFK-055, 1-Pyridin-4-yl-3-quinolin-3-yl-propenone], the 50% inhibitory concentration (IC50) in the test on Jurkat was above 100000 nM.
As for `O=C(/C=C/c1cc(O)c2ccccc2n1)c1ccncc1` [ACT-PFK-066, 3-(4-Hydroxy-quinolin-2-yl)-1-pyridin-4-yl-propenone], the IC50 was found to be 1300 nM with U937; 3800 nM in the test on Calu-6; 2400 nM in the test on Jurkat (Homo sapiens, Jurkat, 72 h).
`O=C(/C=C/c1ccc2cccc(O)c2n1)c1cccnc1` [ACT-PFK-067, 3-(8-Hydroxy-quinolin-2-yl)-1-pyridin-3-yl-propenone]: the IC50 in the test on U937 turned out to be 830 nM; in the test with Calu-6, 2400 nM; with Jurkat (Homo sapiens, Jurkat, 72 h), 3100 nM.
For `Cc1ccc(C(=O)/C=C/c2ccc3ccccc3n2)cc1` [ACT-PFK-068, 3-Quinolin-2-yl-1-p-tolyl-propenone], in that order: 1600 nM, 4800 nM and 5500 nM.
As to `Cc1ccc(C(=O)/C=C/c2ccc3cccc(O)c3n2)cc1` [ACT-PFK-071, 3-(8-Hydroxy-quinolin-2-yl)-1-p-tolyl-propenone], the IC50 in the test with U937 was determined as 1900 nM; with Calu-6, 5000 nM; in the test with Jurkat (Homo sapiens, Jurkat, 72 h) it was 4800 nM.
Turning to `Cc1ccc(C(=O)/C=C/c2cc(O)c3ccccc3n2)cc1` [ACT-PFK-073, 3-(4-Hydroxy-quinolin-2-yl)-1-p-tolyl-propenone], the IC50 with U937 stood at 200 nM; in the test with Calu-6, 800 nM; in the test with Jurkat (Homo sapiens, Jurkat, 72 h), 600 nM.
Take `O=C(/C=C/c1ccc2ccccc2n1)c1ccccc1O` [ACT-PFK-086, 1-(2-Hydroxy-phenyl)-3-quinolin-2-yl-propenone]: the IC50 in the test on U937 is 19300 nM; in the test on Calu-6 it was above 100000 nM; in the test with NCI-H82, 22500 nM; with Jurkat (Homo sapiens, Jurkat, 72 h), 80500 nM.
Take `O=C(/C=C/c1ccc2ccccc2n1)c1ccc(O)cc1` [ACT-PFK-087, 1-(4-Hydroxy-phenyl)-3-quinolin-2-yl-propenone]: the half-maximal inhibitory concentration (IC50) in the test on U937 came out at 1300 nM; with Calu-6, 1600 nM; with NCI-H82 it was 2300 nM; in the test on Jurkat (Homo sapiens, Jurkat, 72 h), 3700 nM.
As to `Nc1ccccc1C(=O)/C=C/c1ccc2ccccc2n1` [ACT-PFK-088, 1-(2-Amino-phenyl)-3-quinolin-2-yl-propenone], the IC50 was 17200 nM with U937; above 100000 nM in the test on Calu-6; 38500 nM in the test with NCI-H82; above 100000 nM in the test with Jurkat (Homo sapiens, Jurkat, 72 h).
